{
  "source": "paper PMC12454603",
  "about": "(Archives of Toxicology, 2025)",
  "key": {"ES-D3 cells": {"system": "ES-D3 cells", "assay": "ES-D3 cell cytotoxicity (WST-1 viability) assay of the mEST", "format": "cell-based, mouse", "conditions": "1-day and 5-day cytotoxicity, ES-D3 cells", "protocol": "The viability of the ES-D3 cells following 1-day and 5-day exposure to the test compounds was measured with the WST-1 assay. To this end, 100 µL cell suspension was seeded in the inner 60 wells of 96-well plates at a concentration of 2 × 10^5 cells/ml for 1-day exposure and 10^4 cells/ml for 5-day exposure and incubated at 37 °C with 5% CO2 for 24 h. After 24 h, 100 µL exposure medium with 0.25% DMSO and the required concentration of the test compounds, solvent control, and positive control were added to the cells in triplicate. The plates were incubated at 37 °C with 5% CO2 for 1 day or 5 days until measurement. After the exposure period, 20 µL of the cell proliferation reagent WST-1 were added to each well that contained cells and the cells were incubated for 3 h at 37 °C with 5% CO2. The absorbance of each plate was measured at 440 nm and 620 nm with a SpectraMax iD3 (San Jose, USA).\nThe concentration–response data for the test compounds in the mEST were presented in three curves including curves for 1-day cytotoxicity, 5-day cytotoxicity, and 10-day differentiation assays. The obtained curves were fitted using the inhibition equation log (inhibitor) vs response (three parameters) option using GraphPad Prism software 5.0 (California, USA)."}, "[1]": {"assay": "In vivo kinetic study, intravenous 50 mg/kg bw, blood concentrations", "conditions": "rat, 50 mg/kg bw parent PAH", "protocol": "Six male Sprague–Dawley rats at the age of 8–9 weeks weighing 286-305g/rat were obtained from Charles River Inc (Beijing, China). The rats were maintained in plastic cages in two groups of three in a temperature-controlled (ranging from 20 °C to 25 °C) and humidity-controlled (ranging from 40–70%) environment on a 12-h light–dark cycle. The animal bedding was corncob and used after autoclaving. The bedding and the cages were changed twice a week. The number of animals was restricted to 3 per dose group and control blood samples were collected before dosing. Feeding and living conditions followed the Chinese Laboratory Animal-Requirement of environment and housing facilities (GB14925-2010). The present rat study was approved by Institutional Animal Care and Use Committee (IACUC-BF202305006).\nAll animals were fasted 8 h before intravenous injection and resumed feed supply 4 h after dosing.\nAfter administration, blood samples (0.1–0.2 ml blood volume) were taken from the medial canthus venous plexus of the animal and anticoagulated with sodium heparin. Prior to orbital venipuncture and blood collection, the animals were anesthetized by CO2 inhalation (70% CO2 + 30% O2). Blood was sampled at 1 min, 0.5, 1, 2, 4, 8, 12, 24, 32, 48, and 72 h post-dosing. After collection, blood samples were frozen and were stored at −20 °C until analysis. All animals were euthanized with 100% CO2 after the experiment.\nAliquots of 100 µL of blood samples were transferred into centrifuge tubes and 700 µL sodium acetate buffer (0.1M, pH 5.0) and 6 µL β-glucuronidase-arylsulfatase were added. The samples were incubated for 1 h at 37 °C and subsequently extracted twice with 800 µL ethyl acetate saturated with water. The samples were shaken for 30 min and centrifuged 5 min at 2000 g (4 °C). The upper organic phase was transferred to a centrifuge tube and evaporated under a gentle stream of nitrogen at 40 ℃ in a water bath. The residues were re-dissolved with 200 µL ascorbic acid:methanol (1:100). […]"}},
  "data": [
    {"smiles": "Cc1ccc2c(c1)cc1ccc3c(O)ccc4ccc2c1c43", "note": "[3-OH-8-MBaP, 3-Hydroxy-8-methyl-benzo[a]pyrene]", "values": [
      {"measurement": "Cytotoxicity accompanying the inhibition of differentiation", "setting": "ES-D3 cells", "result": "without accompanying cytotoxicity"},
      {"measurement": "Observed in vivo Cmax relative to the model prediction (lower)", "setting": "[1]", "result": 3.4, "unit": "fold"},
      {"measurement": "Observed in vivo blood concentration compared with that of 3-OHBaP", "setting": "[1]", "result": "comparable"}
    ]}
  ]
}
